Like-named read-outs stand apart in the source and are kept apart here.
Key:
[1] = system: BoCell™ model cell line; assay type: cell-based; conditions: for increase in BoCell™ Assay sensitivity: Figure 1, 24 hr pre-treatment with drug, then BoNT/A containing drug for an additional 24 hr, YFP/CFP emission ratio
[2] = system: BoCell™ modified neuroblastoma cells; assay type: cell-based
[3] = system: BoCells
[4] = system: neuroblastoma cells; conditions: pretreatment of cells; 1990 JBC paper; cited from earlier work

In the case of `Nc1ncnc2c1nc(Br)n2[C@@H]1O[C@@H]2COP(=O)(O)O[C@H]2[C@H]1O` [8-Bromoadenosine-cAMP], the “increase in BoCell™ Assay sensitivity” value [1] is reported as “increased sensitivity was not seen” and the “increase in BoCell™ Assay sensitivity” value ([1]; listed as 8-Br-cAMP) is reported as “not”.

With `CC1CNCCN1S(=O)(=O)c1cccc2cnccc12.Cl.Cl` (centres unmarked) [H7, 1-(5-isoquinolinylsulfonyl)-2-methylpiperazine dichloride] the “increase in BoCell™ Assay sensitivity” value [1] was “cause an increase in BoCell™ Assay sensitivity”, the “H7 effect on assay sensitivity, dose dependence” value ([1]; Figure 2A, 24 hr pre-treatment, then BoNT/A with H7 for 24 hr) was “dose dependent” and the “increase in sensitivity with multiple H7 lots” value ([1]; Figure 5, 0.75 mM H7 from three independent manufacturers, 24 hrs pre-incubation, then BoNT/A 24 hrs) was “all cause an increase in sensitivity”. For the same compound, the “sensitivity of cells to BoNT/A treatment as measured by SNAP-25 reporter cleavage” value ([1]; pretreatment of cells with H7) was “significantly increased”, the “H7 concentration giving maximal effects” value [2] was “ImM” and the “neurite length and neurite number per cells” value [2] was “rapid increases in both neurite length and neurite number per cells”. For the same compound, the “reversibility of the phenotypic change” value [2] was “could be "rescued" by removal of the H7”, the “time and dose dependence of the H7 effect” value [2] was “both time and dose-dependent” and the cell viability [3] was “does not affect cell viability”.

In the case of `N=C(N)NCCNS(=O)(=O)c1cccc2cnccc12` [HA1004], the “morphologic changes in neuroblastoma cells” value [4] is listed as “failed to induce morphologic changes”.

With `CC(C)Cn1c(=O)n(C)c(=O)c2[nH]cnc21` [IBMX] the “increase in BoCell™ Assay sensitivity” value [1] was “not and increased sensitivity was not seen”.

With `CCCC(=O)Nc1ncnc2c1ncn2[C@@H]1O[C@@H]2COP(=O)(O)O[C@H]2[C@H]1OC(=O)CCC` [dibutyryl-cAMP, dibutyryl-cyclic AMP] the “increase in BoCell™ Assay sensitivity” value [1] was “increased sensitivity was not seen” and the “increase in BoCell™ Assay sensitivity” value ([1]; listed as db-cAMP) was “not”.

For Calphostin C, the “increase in BoCell™ Assay sensitivity” value [1] was “increased sensitivity was not seen” and the “increase in BoCell™ Assay sensitivity” value ([1]; listed as calphostin) was “not”.

From patent publication EP2800973B1 (priority 2012, dated 2013)
